In PubChem BioAssay (NCI):
“And” between values parts separate entries of the source, which are not always exact repeats. Equal entries are not always repeated.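 Step 1: Grow cells in 96-well plates. Step 2: Expose to compound for 48 hours at 5 concentrations. Step 3: Interpolate endpoints linearly; if unreached, use highest concentration. GI50 is the concentration that inhibits growth by half. The concentration for full growth arrest is given as TGI.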

Experiments:
Test in all cases: NCI anticancer screen, dose series, 48 h
SK-OV-3 ovarian = test system: SK-OV-3 ovarian
PC-3 prostate = test system: PC-3 prostate
CAKI-1 renal = test system: CAKI-1 renal
NCI-H522 lung = test system: NCI-H522 lung
MOLT-4 leukemia = test system: MOLT-4 leukemia
HOP-92 NSCLC = test system: HOP-92 NSCLC
SK-MEL-5 melanoma = test system: SK-MEL-5 melanoma
SF-268 CNS = test system: SF-268 CNS
T-47D breast = test system: T-47D breast
MALME-3M melanoma = test system: MALME-3M melanoma

Compound | TGI (SK-OV-3 ovarian) | GI50 (PC-3 prostate) [µM] | TGI (PC-3 prostate) | TGI (CAKI-1 renal) | TGI (NCI-H522 lung) | GI50 (MOLT-4 leukemia) [µM] | TGI (MOLT-4 leukemia) | GI50 (HOP-92 NSCLC) | TGI (HOP-92 NSCLC) | GI50 (SK-MEL-5 melanoma) [µM] | TGI (SK-MEL-5 melanoma) | GI50 (SF-268 CNS) [µM] | TGI (SF-268 CNS) | TGI (T-47D breast) | TGI (MALME-3M melanoma) | GI50 (SK-OV-3 ovarian) | GI50 (NCI-H522 lung) | GI50 (T-47D breast) | GI50 (MALME-3M melanoma)
CCCCCCCCCCC1OC([C@@H](O)CC[C@H](O)C2CC[C@@H](CCCCCCCC(O)CC3=CC(C)OC3=O)O2)CCC1O (stereo partly drawn) | > 25 µM | 2.92 | > 25 µM | > 25 µM | > 25 µM | 2.76 | > 13.9 µM | 3.03 µM | > 25 µM | 1.81 | 9.13 µM and > 10.5 µM | 23.6 | > 25 µM | > 25 µM | > 25 µM |  |  |  | 
CN(C)CCCn1nc(N)c2nc3cc(Cl)ccc3nc21 | > 100 µM |  | > 100 µM | > 100 µM | > 100 µM |  | > 100 µM |  | 76.7 µM |  | 41.3 µM |  | > 100 µM | > 100 µM | > 100 µM |  |  |  | 
CCOC(=O)C(Cc1cccn1C(=O)OC(C)(C)C)[N+](=O)[O-] (stereo not drawn) | > 100 µM |  | 45.3 µM | 64.5 µM | 40.8 µM |  | 50.4 µM |  | 74.2 µM |  | 37.9 µM |  | > 100 µM | > 100 µM | 75.4 µM |  |  |  | 
CCOC(=O)CNc1nc(=O)c2c(=O)oc(Cl)cc2o1 | > 100 µM |  | 26 µM | 29.1 µM | 17.3 µM |  | 29.8 µM |  | 19.5 µM |  | > 100 µM |  | 27.9 µM | 61.7 µM | 23.5 µM |  |  |  | 
Cc1cn([C@@H]2O[C@H](CO[Si](C)(C)C(C)(C)C)[C@]3(O[C@H]3C(=O)NN)[C@H]2O[Si](C)(C)C(C)(C)C)c(=O)[nH]c1=O | 36.2 µM |  | 11.4 µM | 28.2 µM | 5.47 µM |  | 6.02 µM |  | 19.7 µM |  | 24 µM |  | 12 µM | 6.32 µM | 11.8 µM |  |  |  | 
O=c1[nH]nc(Cc2ccccc2)n1CCO | > 100 µM |  | > 100 µM | > 100 µM | > 100 µM |  | > 100 µM |  | > 100 µM |  | > 100 µM |  | > 100 µM | > 100 µM | > 100 µM |  |  |  | 
C=C1C(=O)O[C@@H]2C[C@]3(C)CC[C@]4(C)[C@H](CC[C@@H]5[C@@]6(C)CCC(=O)C(C)(C)[C@@H]6CC[C@]54C)[C@H]3[C@H]12 | 44.1 µM |  | 35.4 µM | 30.2 µM | 23.2 µM |  | 5.76 µM |  | 26.2 µM |  | 25.1 µM |  | 46.1 µM | 34 µM | 29.7 µM |  |  |  | 
c1c[nH]c(C23C4C5C6C4C2C6C53)n1 (stereo not drawn) | > 100 µM |  | > 100 µM | > 100 µM | > 100 µM |  | > 100 µM |  | > 100 µM |  | > 100 µM |  | > 100 µM | > 100 µM | > 100 µM |  |  |  | 
O=c1c(=O)c2c(Br)sc(Br)c2c1=O | > 100 µM |  | 36.5 µM | 33.4 µM | 32 µM |  | 48.3 µM |  | 33 µM |  | 31.8 µM |  | > 100 µM | 47.8 µM | 31.8 µM |  |  |  | 
CCOP(=O)(OCC)C(N)c1ccc(Cl)cc1 (stereo not drawn) |  |  | > 100 µM | > 100 µM | > 100 µM |  | > 100 µM |  | > 100 µM |  | > 100 µM |  | > 100 µM | > 100 µM | > 100 µM |  |  |  | 
CCCCON1C[C@H](OC(C)=O)C(OC(C)=O)[C@H](OC(C)=O)C1 (stereo partly drawn) | > 100 µM |  | > 100 µM | > 100 µM | > 100 µM |  | > 100 µM |  | > 100 µM |  | > 100 µM |  | > 100 µM | > 100 µM | > 100 µM |  |  |  | 
O=S(=O)(/N=C(\NO)Nc1ccc(Cl)cc1)c1cccc2nsnc12 | > 100 µM |  | > 100 µM | 70 µM | 28.9 µM |  | > 100 µM |  | 73.7 µM |  | 29.5 µM |  | > 100 µM | > 100 µM | 46.3 µM |  |  |  | 
Cc1ccc(/C=N/Nc2ccc3ccccc3n2)s1 | > 100 µM |  | 31.5 µM | > 100 µM | 77.8 µM |  | > 100 µM |  | 78.3 µM |  | 30.7 µM |  | > 100 µM | > 100 µM | 41.2 µM |  |  |  | 
COc1ccc(N2C(=O)C3c4[nH]c5ccc(F)cc5c4C4CCC(c5ccccc5)CC4C3C2=O)cc1 (stereo not drawn) | 49.5 µM |  | 35.2 µM | 48.1 µM | 39.1 µM |  |  |  | 36.8 µM |  | 54.2 µM |  | 20.3 µM | > 100 µM | 33.3 µM |  |  |  | 
CC1OC(OC2C(OC(=O)[C@]34CCC(C)(C)C[C@H]3C3=CC[C@@H]5[C@@]6(C)CC[C@H](OC7OC(C(=O)O)C(O)C(OC8OCC(O)C(O)C8O)C7O)C(C)(C)[C@@H]6CC[C@@]5(C)[C@]3(C)CC4)OCC(O)C2O)C(O)C(OC2OCC(O)C(O)C2O)C1OC1OCC(O)C(OC2OCC(O)C(O)C2O)C1O (stereo partly drawn) | 33.7 µM and > 100 µM |  | 21.7 µM and 23.1 µM | 18.8 µM and 23.1 µM | 7.93 µM and 25.9 µM |  | 25 µM and 49.8 µM | 6.12 µM and 13 µM | 17.4 µM and 26.6 µM |  | 29.6 µM and 35 µM |  | 25.5 µM and 54.7 µM | 51.8 µM and > 100 µM | 25.7 µM and 91 µM | 15.4 µM and 37.2 µM | 2.53 µM and 12.3 µM | 9.59 µM and 38.3 µM | 10.6 µM and 28.6 µM
Cc1c2c(OCCN3CCCCC3)nn(C)c(=O)c2c(C)n1-c1ccccc1 | > 100 µM |  | > 100 µM | > 100 µM | 84.1 µM |  | > 100 µM |  | > 100 µM |  | 32.1 µM |  | > 100 µM | > 100 µM | 35.3 µM |  |  |  | 
C=C1C(=O)O[C@@H]2C=C(C)C3=CC(=O)[C@](C)(C[C@H](OC(=O)/C(C)=C\C)[C@@H]12)O3 | 16.8 µM |  | 5.01 µM | 1.38 µM | 0.394 µM | 0.353 | 1.5 µM |  | 2.18 µM |  | 2.03 µM |  |  | 3.81 µM | 7.5 µM |  |  |  | 
